Assay results published in the COVID Moonshot data (paper PMC11187573), “Identification of SARS-CoV-2 Mpro inhibitors through deep reinforcement learning for de novo drug design and computational chemistry approaches” (RSC Medicinal Chemistry, 2024).

Experiments:
[1] = target: SARS-CoV-2 Main Protease (SARS-CoV-2) (UniProt P0DTD1); conditions: for inhibition: 50.0 µM
[2] = target: SARS-CoV-2 Main Protease (SARS-CoV-2) (UniProt P0DTD1)

Row | Structure (SMILES) | IC50 [1] [µM] | IC50 [2] [µM] | inhibition ([2]; 20.0 µM) [%] | inhibition ([2]; 50.0 µM) [%] | inhibition [1] [%]
1 | O=C(Cc1ccc(Cl)c(Cl)c1)Nc1cncc2ccccc12 | 0.132 | 0.261 |  |  | 
2 | C=CC(=O)N(c1ccc(C(F)(F)F)cc1)C(C(=O)NCCc1cccc(F)c1)c1cncc(O)c1 (centres undefined) | 17.3 |  | 26.8 | 44.9 | 
3 | C=CC(=O)N(C1CCOC1=O)C(C(=O)NC(C)(C)C)c1cccnc1 (centres undefined) |  |  | -5.08 | -7.63 | 0
4 | O=C(C(F)Cl)N1CCN(Cc2cccc3ccccc23)CC1 (centres undefined) |  |  | 20.5 | 29.5 | 9.11
5 | O=C(Cc1cc(Cl)cc2c1OCC2)Nc1cncc2ccccc12 | 0.492 | 1.45 |  |  | 78.3
6 | Cc1cnc2c(-c3ccc4[nH]ncc4c3)c(-c3ccc(F)cc3)nn2c1 |  |  | -1.68 | -1 | 34.7
7 | Nc1cncc2c1CCCN2C(=O)Cc1cccc(Cl)c1 | 54.2 | 32.5 |  |  | 
8 | CC(C)C[C@H](NC(=O)OCc1ccccc1)C(=O)N[C@H](C(=O)NCC(=O)C=[N+]=[N-])C(C)C (stereo in doubt) |  |  |  | 11.5 | 15.3
9 | O=C1C(=O)N(Cc2ncon2)c2ccc(Br)cc21 | 3.79 |  | -1.88 | -2.4 | 94.1
10 | C=CC(=O)N1CCN(S(C)(=O)=O)CC1c1ccccc1 (centres undefined) |  |  | -0.438 | 2.89 | 0
11 | N#Cc1ccc(CN2CCC(C3CCNC3)CC2)cc1 (centres undefined) | 1.36 |  | 97.1 | 98.9 | 
12 | CCc1cccc(CC)c1NC(=O)CN1C(=O)C(=O)c2cc(OC)ccc21 |  |  | -6.58 | -0.841 | 13
13 | COC(=O)c1c(C)n(S(C)(=O)=O)c2ccc(N(C(=O)c3ccco3)S(C)(=O)=O)cc12 | 0.335 |  | 47.7 | 97.8 | 
14 | O=C(Nc1cccnc1)N(CCN1CCOCC1)c1cccc(Cl)c1 |  |  | 24.4 | 49.6 | 59.4
15 | O=S(=O)(Cc1nc(-c2ccncc2)no1)Nc1ccc(N2CCCCC2)cc1 |  |  | 3.34 | 2.66 | 0
16 | Cc1nnc(NC(=O)C2COc3ccc(Cl)cc32)n1C1CC1 (centres undefined) |  |  | -63.2 | -2.41 | 0

Row | Structure (SMILES) | IC50 [1] [µM] | IC50 [2] [µM] | inhibition ([2]; 20.0 µM) [%] | inhibition ([2]; 50.0 µM) [%] | inhibition [1] [%]
17 | COc1ccccc1OCC(C)NC(=O)c1cc(=O)[nH]c2ccc(F)cc12 (centres undefined) |  |  | 42 | 59.3 | 40.1
18 | COc1ccccc1OCCNC(=O)c1cc(=O)[nH]c2cccc(F)c12 | 1.83 |  | 8.74 | 12.5 | 
19 | O=C(CCl)N1CCN(S(=O)(=O)c2ccc(Cc3cccc4ccccc34)cc2)CC1 | 15.2 |  | 20.6 | 29.9 | 89
20 | C/C(O)=C(\C#N)C(=O)Nc1ccc(C(F)(F)F)cc1 |  |  | -2.89 | -3 | 22.2
21 | Cc1nc[nH]c1CN1CCN(Cc2cccc(Cl)c2)C1=O |  |  | -0.267 | 2.39 | 0
22 | COc1cc(OC)cc(Oc2cccc(CNC(=O)Cn3nnc4ccccc43)c2)c1 |  |  | -3.39 | 0.116 | 0
23 | O=C(CCl)N1CCN(Cc2cnc(Cc3ccccc3)s2)CC1 | 34.6 |  | 41.5 | 51.6 | 97.6
24 | Cc1nc(N)sc1CN1CCN(Cc2cccc(Cl)c2)C1=O |  |  | 5.38 | 35.6 | 0
25 | N#Cc1cccc(CN2C(=O)C(=O)c3cccc(Br)c32)c1 | 0.017 |  | -5.42 | -2.38 | 91.2
26 | O=[N+]([O-])c1cnc(Sc2nnc(-c3ccc(Cl)cc3)o2)s1 | 0.319 |  | 28.9 | 71.2 | 
27 | O=[N+]([O-])c1cnc(Sc2nnc(-c3ccco3)n2-c2ccc(OCc3ccccc3)cc2)s1 | 0.66 |  | 31.8 | 94.4 | 
28 | Cc1ccc(OCCN2C(=O)C(=O)c3cccc(Cl)c32)cc1 | 2.15 |  | 0.316 | 5.65 | 77
29 | O=C(Nc1ccc([N+](=O)[O-])cc1Cl)c1cc(Cl)ccc1O |  |  |  | -22.8 | 21
30 | Cc1cc(Cl)cc(CC2CCN(C(=O)CCl)CC2)c1 | 1.24 |  | 95.1 | 98.3 | 100
31 | CC(=O)Oc1ccccc1C(=O)Nc1ncc([N+](=O)[O-])s1 |  |  |  | -8.72 | 0
